Experimental data published in paper PMC6651341, “EDB-FN Targeted Peptide–Drug Conjugates for Use against Prostate Cancer” (International Journal of Molecular Sciences, 2019).
Where a SMILES comes first, the peptide text is derived from it. Bridges are numbered along the chain shown (N, C = ends). [ ]: non-standard residue; d: D form. The star is where a group is joined. Doxorubicin(Traut) = COc1cccc2c1C(=O)c1c(O)c3c(c(O)c1C2=O)C[C@@](O)(C(=O)CO)C[C@@H]3O[C@H]1C[C@H](NC(=N)CCCS*)[C@H](O)[C@H](C)O1; Ahx = NCCCCCC(=O)O

Tests used:
[1] = system: RWPE-1 normal human prostate epithelial cells; test: MTS cell viability assay, RWPE-1; assay type: cell-based; settings: 5 µM, after 72 h, triplicate
Source text: (§1) Human epithelial prostate cell line (RWPE-1, ATCC No. CRL-11610), human prostate cancer cell line (Human prostate carcinoma DU-145, ATCC No. HTB-81), human adenocarcinoma PC3, ATCC No. CRL-1435), androgen-sensitive human prostate adenocarcinoma cells (LNCaP, ATCC No. CRL-1740), and castration-resistant LNCaP-derived C4-2 (ATCC No. CRL-1595) were purchased from American Type Culture Collection (ATCC), Manassas, VA, USA. All the media, serum, and antibiotics were bought from American Type Culture Collection (ATCC) (Manassas, VA, USA) and Sigma life-science (St. Louis, MO, USA). Keratinocytes SFM (1×) with EGF + BPE was bought from Gibco life technologies (Thermo Fisher Scientific), Gaithersburg, MD, USA. CellTiter 96 was bought from Promega, Madison, WI, USA. […]
(§2) Cell-proliferation assay using MTS reagent was conducted against five cell lines (RWPE-1, PC3, DU-145, LNCaP, and, C4-2). […] The absorbance was obtained at 490 nm using SpectraMax M2 microplate reader to detect the formazan product. […] The percentage of cell viability was calculated by [(OD value of cells treated with the test mixture of compounds) − (OD value of culture medium)] / [(OD value of control cells) − (OD value of culture medium)] × 100%. […] Cell viability was determined by measuring the absorbance at 490 nm using SpectraMax M2 microplate spectrophotometer, as mentioned above.

[2] = system: LNCaP; test: MTS cell viability assay, LNCaP; assay type: cell-based, human; settings: 5 µM, after 72 h, triplicate
Source text: as §1, §2

[3] = system: C4-2; test: MTS cell viability assay, C4-2 without TGF-β; assay type: cell-based, human
Source text: (§3) Human epithelial prostate cell line (RWPE-1, ATCC No. CRL-11610), human prostate cancer cell line (Human prostate carcinoma DU-145, ATCC No. HTB-81), human adenocarcinoma PC3, ATCC No. CRL-1435), androgen-sensitive human prostate adenocarcinoma cells (LNCaP, ATCC No. CRL-1740), and castration-resistant LNCaP-derived C4-2 (ATCC No. CRL-1595) were purchased from American Type Culture Collection (ATCC), Manassas, VA, USA. All the media, serum, and antibiotics were bought from American Type Culture Collection (ATCC) (Manassas, VA, USA) and Sigma life-science (St. Louis, MO, USA). Keratinocytes SFM (1×) with EGF + BPE was bought from Gibco life technologies (Thermo Fisher Scientific), Gaithersburg, MD, USA. CellTiter 96 was bought from Promega, Madison, WI, USA. Dithiothreitol (DTT) was bought from Thermo Fisher scientific, Carlsbad, CA, USA, and TGF-β was bought from Abcam, Boston, MA, USA.
(§4) Cell-proliferation assay using MTS reagent was conducted against five cell lines (RWPE-1, PC3, DU-145, LNCaP, and, C4-2). Cells were seeded into 96-well plates (5 × 10^3 cells for all the cells) and incubated with 100 µL of complete medium (RPMI-1640 for RWPE-1, DU-145, LNCaP, and C4-2; DMEM for PC3) overnight at 37 °C with 5% CO2. Various concentrations (0, 0.06, 0.6, 6, 60, 600 μM) of the peptide solution (20 μL) were added to cells to yield the final concentrations of peptide (0, 0.01, 0.1, 1, 10, 100 μM). The cells were kept in an incubator (37 °C, 5% CO2) for 24, 48, or 72 h accordingly for different treatment time responses. […] The absorbance was obtained at 490 nm using SpectraMax M2 microplate reader to detect the formazan product. […] The percentage of cell viability was calculated by [(OD value of cells treated with the test mixture of compounds) − (OD value of culture medium)] / [(OD value of control cells) − (OD value of culture medium)] × 100%. […] Cell viability was determined by measuring the absorbance at 490 nm using SpectraMax M2 microplate spectrophotometer, as mentioned above.

[4] = system: PC3; test: MTS cell viability assay, PC3; assay type: cell-based, human
Source text: as §3, §4

[5] = system: DU-145; test: MTS cell viability assay, DU-145; assay type: cell-based, human; settings: 5 µM, after 72 h, triplicate
Source text: as §1, §2

[6] = Stability in PBS at different pH; assay type: physicochemical; settings: pH values ranging from 6.5 to 7.4 (method: 6.8, 7.0, 7.4), 37 °C, aliquots at 4, 24, 84 h, analytical RP-HPLC 490 nm, % remaining from AUC
Experimental: The stability of peptide–drug conjugate 13 was evaluated in the phosphate buffered saline (PBS). The pH of PBS was adjusted to 6.8, 7.0, 7.4 using HCl and NaOH as needed. In brief, 250 µL of 1 × PBS was mixed with 45 µL of 0.25 mM Dox-peptide conjugate 13. The mixture was incubated at 37 °C in a water bath covered with aluminum foil. An aliquot (40 µL) was removed at different time intervals, such as 4, 24, and 84 h and analyzed using analytical RP-HPLC at 490 nm. The percentage of the remained peptide was calculated using the area under the curve (AUC) by integrating the chromatogram in analytical HPLC. For evaluation of stability in DTT, a solution of DTT (0.120 mM) was prepared using PBS (pH 7.4). A solution of compounds (1, 8, and 13 at 1 mM) was prepared in PBS (pH = 7.4). A volume of 45 µL of the peptide was added to 2.250 mL of PBS in a UV-blocking glass vial. The glass vials were put under nitrogen and stirred using a small magnetic bead. A volume of DTT ([…], 12 equiv) was added to the solution, which was incubated with each peptide sample to obtain a working concentration of 0.12 mM DTT and 0.010 mM peptide. Aliquots of 200 µL were collected at different time intervals and analyzed using analytical HPLC vials (0 min was used as controls without DTT) after quenching the DTT with 10 µL of H2O (pH = 2). The aliquots were run on analytical HPLC with detection at 214 nm.

[7] = Stability in 25% human serum; assay type: in vitro ADME; settings: 25% human serum in RPMI-1640, 37 °C, conjugate 125 µM, aliquots 2-120 min, methanol precipitation, analytical HPLC, trendline R^2 0.978, each point average of three readings
Experimental: The stability was performed using 25% human serum. 325 µL of RPMI-1640 media was incubated with 125 µL of human serum at 37 °C in a water bath. Then 50 µL of 125 µM of conjugate 13 was added to the RPMI and serum. The control experiment was performed without conjugate using an aqueous 5% DMSO. Several aliquots (55 µL) were removed at 2, 5, 10, 15, 30, 60, 90, and 120 min. The aliquots were added to 120 µL of cold methanol to precipitate the serum proteins with vigorous mixing using vortex and kept at ice for 10 min. Then, the samples were centrifuged at 17× g (13,300 rpm) for 10 min to get a pellet of the insoluble peptide. The supernatant was collected and analyzed on analytical HPLC, as mentioned before.

[8] = molecular target: T1, Human cathepsin B (Homo sapiens, UniProt P07858); test: Hydrolysis with cathepsin B enzyme; assay type: in vitro ADME; settings: activated human cathepsin B, 50 mM acetate buffer pH 5.0 with 1 mM EDTA, 8 µL of 1 mM conjugate per 200 µL, HPLC 214/490 nm and MALDI-TOF
T1 construct: purchased Athens Research Lot # CB2016-02 (a lot number; no catalogue number given)
Experimental: Human cathepsin B (CTSB, Lot # CB2016-02 from Athens Research, Athens, GA, USA) was used to hydrolyze the cathepsin linker GFLG in conjugated peptide 13. A stock solution of cathepsin B enzyme (0.434 µg/µL) was prepared using 50 mM acetate (pH 5.0) buffer with 1 mM EDTA. The activation buffer was separately prepared using 30 mM DTT and 15 mM EDTA in H2O. An aliquot of 2.25 µL of cathepsin B stock was activated with 5 µL of activation buffer for 15 min at room temperature then diluted with 1.185 mL of acetate buffer and aliquoted into different tubes with 200 µL each. Further 8 µL of 1 mM of conjugated peptide 13 was added to aliquots and incubated for various time intervals. Then, the reaction was quenched by boiling to denature cathepsin B for 10 min. A 400 µL of cold methanol was added to precipitate the proteins followed by centrifugation of sample 17× g (13,300 rpm) for 10 min. A supernatant (500 µL) was collected, evaporated, and reconstituted with 300 µL of HPLC solvent A (H2O with 0.1% TFA). The eluent fraction from HPLC was further collected and analyzed using MALDI-TOF mass spectrometry to confirm the hydrolysis of the conjugate.

[9] = system: RWPE-1, PC3, LNCap, Du-145 cell lines; test: MTS cell viability, range over four cell lines; assay type: cell-based, human; settings: 5 µM, 72 h incubation
Source text: as §3, §4

[10] = system: C4-2 cells with TGF-β treatment (EDB-FN overexpression); test: MTS cell viability of C4-2 cells treated with TGF-β to overexpress EDB-FN; assay type: cell-based, human; settings: C4-2, TGF-β 10 ng/mL for 3 days, after 72 h
Experimental: Cell-proliferation assay using MTS reagent was conducted against five cell lines (RWPE-1, PC3, DU-145, LNCaP, and, C4-2). Cells were seeded into 96-well plates (5 × 10^3 cells for all the cells) and incubated with 100 µL of complete medium (RPMI-1640 for RWPE-1, DU-145, LNCaP, and C4-2; DMEM for PC3) overnight at 37 °C with 5% CO2. Various concentrations (0, 0.06, 0.6, 6, 60, 600 μM) of the peptide solution (20 μL) were added to cells to yield the final concentrations of peptide (0, 0.01, 0.1, 1, 10, 100 μM). The cells were kept in an incubator (37 °C, 5% CO2) for 24, 48, or 72 h accordingly for different treatment time responses. Then, a CellTiter 96 aqueous solution (20 μL) was added to each well and incubated for 4 h under the same condition. The absorbance was obtained at 490 nm using SpectraMax M2 microplate reader to detect the formazan product. Wells containing cells in the absence of any peptide were used as a control. The percentage of cell viability was calculated by [(OD value of cells treated with the test mixture of compounds) − (OD value of culture medium)] / [(OD value of control cells) − (OD value of culture medium)] × 100%. […] Cell viability was determined by measuring the absorbance at 490 nm using SpectraMax M2 microplate spectrophotometer, as mentioned above.
To compare the cytotoxicity of compounds using treatment of TGF-β, the cells were culture, and 8000 cells (RPWE-1, PC3, DU-145, LNCap, and C4-2) were added in 120 μL per well with TGF-β treatment. Cells were exposed to TGF-β at 10 ng/mL for 3 days. Then cells were seeded in the corresponding medium (DMEM containing 10% FBS and 1% penicillin–streptomycin for DU-145, LNCaP, and PC3; keratinocyte containing 0.1% FBS without antibiotics for RWPE-1), 24 h prior to the experiment. Then, MTS assay was followed up, as mentioned in 3.5.1.

[11] = system: EDB-FN; test: Confocal microscopy of FAM-tagged peptides, binding to EDB-FN; assay type: cell-based, human; settings: C4-2 cells, 5 μg FAM-peptide, 12 h, confocal 60×
Experimental: Prostate cancer cell line (C4-2) was grown in RPMI medium containing 10% fetal bovine serum and 1% penicillin/streptomycin at the 37 °C in a 5% CO2 incubator. The culture medium was changed every 2–3 days until confluency was reached to 80%. Each cells group was treated with 5 μg of fluorescence-tagged peptides (17 and 18) for 12 h. A set of control groups was also prepared, which was not treated with peptides. Then all cells were fixed with 4% paraformaldehyde for 10 min and washed for 10 min (3 times with PBS). The cells were blocked in 1% FBS/PBS for 10 min and washed for 10 min (3 times with PBS). To target EDB-FN on the cell surface, the cells were incubated with a mouse monoclonal anti-fibronectin antibody (Abcam, Cambridge, MA, USA) (1:1000 dilution using 1% FBS/PBS) overnight at the 4 °C. The cells were washed for 10 min (3 times with PBS), and a Texas red-conjugated anti-mouse secondary antibody was used in 1% FBS/PBS (5:1000 dilution) at the room temperature for 1 h. Then cells were washed for 10 min (3 times with PBS), and at the end, nuclei were stained using DAPI and covered with coverslips. Representative images of cells were captured using a standard confocal microscope (Nikon Eclipse Ti-E, Nikon Instruments Inc., Melville, NY, USA) at 60× magnification, and the images were processed for binary contrast quantification.

Compound: CC(C)C[C@H](NC(=O)[C@H](Cc1ccccc1)NC(=O)CNC(=O)[C@@H](N)CS)C(=O)NCC(=O)NCCCCCC(=O)N[C@H]1CCCCNC(=O)CC[C@@H](C(N)=O)NC(=O)[C@H](CC(=O)O)NC(=O)[C@H](C)NC(=O)[C@H](CO)NC(=O)[C@H]([C@@H](C)O)NC(=O)[C@H](CCCNC(=N)N)NC(=O)[C@H](C(C)C)NC(=O)[C@H]([C@@H](C)O)NC1=O [compound 9] (H-CGFLG[Ahx]KTVRTSADE-NH2; lactam 7-15)
- cytotoxicity [1]: did not show any significant cytotoxicity
- cytotoxicity [2]: did not show any significant cytotoxicity
- cytotoxicity ([3]; 5 µM, after 72 h, triplicate): did not show any significant cytotoxicity
- cytotoxicity ([4]; 5 µM, after 72 h, MTS, triplicate): did not show any significant cytotoxicity
- cytotoxicity [5]: did not show any significant cytotoxicity

Compound: COc1cccc2c1C(=O)c1c(O)c3c(c(O)c1C2=O)C[C@@](O)(C(=O)CO)C[C@@H]3O[C@H]1C[C@H](NC(=N)CCCSSC[C@H](N)C(=O)NCC(=O)N[C@@H](Cc2ccccc2)C(=O)N[C@@H](CC(C)C)C(=O)NCC(=O)NCCCCCC(=O)N[C@H]2CCCCNC(=O)CC[C@@H](C(N)=O)NC(=O)[C@H](CC(=O)O)NC(=O)[C@H](C)NC(=O)[C@H](CO)NC(=O)[C@H]([C@@H](C)O)NC(=O)[C@H](CCCNC(=N)N)NC(=O)[C@H](C(C)C)NC(=O)[C@H]([C@@H](C)O)NC2=O)[C@H](O)[C@H](C)O1 [compound 13] (H-C(Doxorubicin(Traut))GFLG[Ahx]KTVRTSADE-NH2; lactam 7-15)
- half-life in PBS [6]: ~ 10 h
- half-life at 12.5 µM [7]: ~11.8 min
- time within which cathepsin B cleaves the GFLG linker / releases drug [8]: ≤ 5 min
- cytotoxicity compared to drug alone ([3]; C4-2 without TGF-β, 24–72 h): less cytotoxic as compared to drug alone
- toxicity at or below 10 µM ([4]; PC3, 2 h incubation, 0.01-100 µM in 5% DMSO): no significant toxicity
- cell proliferation (cell viability), range over all four cell lines [9]: 25–35%
- decrease in cell viability in TGF-β treated cells as compared to untreated cells [10]: 17%

Compound: FAM-GFLG-C6-[KTVRTSADE] (sidechain bridge or staple) [compound 18]
- increase in the peptide-stained area compared to peptide 17 (binary contrast quantification) [11]: 48%
